Data: article PMC11982498 (Redox Biology, 2025)

Experiments:
[1] = test system: BCL-2 gene transcription in brain of APP/PS1 mice; test: Real-time RT-PCR of mice brain, BCL-2; format: in vivo; conditions: for F = 2^-∆∆Ct (relative expression fold), BCL-2: relative to WT
Experimental: Five months old male APP/PS1 mice, weighing 25–33 g, were purchased from Guangdong Medical Laboratory Animal Center and housed in the Laboratory Animal Center of Sun Yat-sen University (Guangzhou, China) for experimentation. […] The mice were housed in a specific pathogen-free environment with a controlled temperature of 22 ± 1 °C and a 12-h dark/light cycle. The mice were fed with a standard diet, and 30 mice were randomly divided into 6 groups (N = 5). […] Behavioral experiments were then conducted, and tissue specimens were collected for biochemical analysis.
^a -∆∆Ct = -[(Ct value of genes in treated sample - Ct value of genes in control) - (Ct value of β-actin in treated sample - Ct value of β-actin in control)]. ^b F: The relative expression fold.
Following sample homogenization, chloroform was added, and the solution was allowed to have phase separation into an upper aqueous layer (containing RNA), an interphase, and a lower organic layer (containing DNA and proteins). RNA was precipitated from the aqueous phase using isopropanol, while DNA was precipitated from the aqueous-organic interphase using ethanol.
Quantitative real-time polymerase chain reaction (qRT-PCR) was performed using the 2× RealStar SYBR Mixture (GenStar, Cat# A301-10, Guangzhou, China) on a LightCycler 480 II real-time PCR system (Roche, USA). Data were analyzed using the 2^−ΔΔCt method. Actin served as the internal control, and relative mRNA levels were normalized accordingly.

Aβ1-42 [2] = biological target: T1, Aβ1-42 (Homo sapiens, UniProt P05067); test: Congo red binding assay; format: biochemical; conditions: 20 μM compound, 72 h
T1 construct: Aβ1-42 was purchased from Gill Biochemicals Ltd (Shanghai, China); purchased Gill Biochemicals Ltd (Shanghai, China)
T1 sequence (P05067 672-713 limits assumed): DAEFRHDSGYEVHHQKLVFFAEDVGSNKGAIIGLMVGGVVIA
Experimental: (§1) A total of 30 μM Congo red (Aladdin, Shanghai, China) solution (20 mM potassium phosphate, 50 mM NaCl, pH 7.4) was prepared and filtered with a 0.45 μm filter. The Aβ1-42 solutions (30 μM) were co-incubated with B14 (20 μM), A22 (20 μM), or Curcumin (20 μM) at 37 °C protected from light for 72h. The Aβ1-42 solution was mixed with equal volume of Congo red solution, followed by incubation for 30 min. A spectral region from 400 nm to 650 nm was measured by using a UV–vis spectrophotometer (AoE, China).
as §1, with “red” for “red (Aladdin, Shanghai, China)”, “μM) and” for “μM), A22 (20 μM), or”, “solution and incubated” for “solution, followed by incubation”, “analyzed” for “measured”, “UV-vis” for “UV–vis”

Aβ1-42 [3] = biological target: T1, Aβ1-42; test: Dot blot of Aβ1-42 fibril aggregation; format: biochemical; conditions: 20 μM compound, 24 h
Experimental: After incubation at 37 °C for 24 h, 10 μL aliquots of 20 μM Aβ1-42 reaction mixtures were spotted onto nitrocellulose membranes. Membranes were blocked for 2 h with 5 % non-fat milk in TBS. After washing, membranes were incubated with the anti-Aβ fibril antibody (1:1,000, CST, USA) dissolved in TBS containing 3 % bovine serum albumin (BSA, Beyotime, Jiangsu, China) and 0.01 % Tween-20 (Solarbio, Beijing, China), and developed using an alkaline-phosphatase anti-rabbit secondary antibody (1:5,000, Proteintech, China). The bands were then detected using an enhanced chemiluminescence (ECL) kit (Millipore, USA).
After incubation at 37 °C for 24h, 10 μL aliquots of 20 μM Aβ1-42 reactions were spotted onto nitrocellulose membranes. The membranes were blocked for 2 h with 5% non-fat milk in TBS. After washing, the membranes were incubated with the anti-Aβ fibril antibody (1:1000 dilution) dissolved in TBS containing 3% BSA and 0.01% Tween-20, and then developed using an alkaline-phosphatase antirabbit secondary antibody (1:5000 dilution). Invitrogen's Western Breeze Chemiluminescent kit was used to visualize the protein dots, and these dots were imaged using a FUJIFILM Luminescent Image Analyzer LAS-1000CH.

BCL-2 G4 = test: ESI-MS with BCL-2 G4; format: binding; conditions: pH 7.4
Experimental: The oligomer for BCL-2 promoter […] at concentration of 5 μM was annealed in 1 × BPES buffer with or without 20 μM B14 at 95 °C for 5 min, followed by cooling to room temperature. Mass spectrometry signals were collected by using ESI-MS (Thermo, LCQ DECA Plus XP) and analyzed by using pro-mass.
Figure S5. ESI-MS, UV, CD, and EMSA experiments were performed to examine the effect of B14 on BCL-2 promoter i-motif and G-quadruplex. (A) ESI-MS experiment for oligomer BCL-2 G4 alone, which was annealed in 1 × BPES buffer at pH 7.4. (B) ESI-MS experiment for above oligomer BCL-2 G4 with addition of B14 in 1 × BPES buffer at pH 7.4. (C-D) TO displacement with increasing amount of oligomer BCL-2 i-motif annealed in 1 X BPES buffer at pH 5.5 in the presence of 20 equivalents of B14 or A22. (E) EMSA experiment was performed for the effect of B14 on inducing BCL-2 i-motif formation. The lanes from left to right were as follow: BCL-2 i-motif alone at pH 5.5; BCL-2 i-motif alone at pH 6.2; BCL-2 i-motif plus 1 eq B14 at pH 6.2; BCL-2 i-motif plus 5 eq B14 at pH 6.2; BCL-2 i-motif plus 10 eq B14 at pH 6.2. (F) CD experiment was performed to study the interaction of B14 or A22 with BCL-2 promoter i-motif.

BCL-2 IM = test: FRET fluorescence titration of double-labeled DNA; format: binding; conditions: pH 6.2
Experimental: Figure S3. Biophysical experiments were performed for binding of acridine derivative to BCL-2 promoter i-motif and other DNA structures. (A-C) SPR experiments were performed for binding of B14 to ILPR promoter i-motif, (G2C4)6 promoter i-motif, and HRAS promoter i-motif. Bio-ILPR, bio-(G2C4)6, and bio-HRAS were annealed in MES buffer at pH 5.5. (D) FRET experiment was performed for pH-dependent fluorescence change of BCL-2 promoter i-motif dual labeled with FAM and TAMRA at the 5´-end and 3´-end, respectively. […] (E) Dose-dependent fluorescence spectra changes at 516 nm for various dual labeled C-rich oligomers (representing i-motifs from promoters of BCL-2, C-KIT, C-MYC, C-JUN and TEL-C DNA) were measured with addition of increasing amount of B14. […] All the experiments were repeated for three times.
The oligonucleotides with fluorescent 5´-FAM and 3′-TAMRA labeling at concentration of 100 nM in 1 × BPES buffer were annealed by heating at 95 °C for 5 min followed by cooling to room temperature. The spectra from 500 nm to 700 nm of 100 μL mixture with addition of different equivalent compounds at 25 °C were recorded based on fluorescence emission (λex = 480 nm).

SH-SY5Y cells = test: FITC Annexin V/PI cell apoptosis analysis in Aβ1-42 model; format: cell-based; conditions: 25 μM Aβ1-42 induced model
Experimental: The FITC Annexin V/PI apoptosis analysis was conducted using the FITC Annexin V/PI Apoptosis Detection Kit (Muti sciences, 70-AP101-100). Cells were treated with varying concentrations of B14 in a 6-well plate containing a cell model induced with 25 μM Aβ1-42. After digestion and resuspension in 500 μL binding buffer, samples were incubated with 5 μL of FITC Annexin V for 5 minutes, followed by the addition of 5 μL PI for further incubation at room temperature for 10 minutes. Flow cytometry analysis (Millipore, guava easy Cyte) was used to measure fluorescence intensity, and data analysis was performed using Flow jo V10.

Structure (SMILES): O=C(CCN1CCOCC1)Nc1ccc2c(c1)c(=O)c1cc(NC(=O)CCN3CCOCC3)ccc1n2-c1ccc2occc2c1 [Compound B14]
- -∆∆Ct, BCL-2 ([1]; 10 mg/kg): 0.39
- F = 2^-∆∆Ct (relative expression fold), BCL-2 ([1]; 10 mg/kg): 0.76
- -∆∆Ct, BCL-2 ([1]; 20 mg/kg): 0.17
- F = 2^-∆∆Ct (relative expression fold), BCL-2 ([1]; 20 mg/kg): 0.88
- -∆∆Ct, BCL-2 ([1]; 40 mg/kg): -0.01
- F = 2^-∆∆Ct (relative expression fold), BCL-2 ([1]; 40 mg/kg): 1.00
- absorbance of Congo red in the Aβ1-42 sample (Aβ1-42 [2]): significantly reduced
- formation of Aβ fibers (dot blot) (Aβ1-42 [3]): reduced the formation of Aβ fibers and greatly decreased Aβ self-aggregation
- adduct peak in ESI-MS (BCL-2 G4): no corresponding binding peak appeared
- fluorescence response of double-labeled DNA (BCL-2 IM): dose-dependent effect on the fluorescence of BCL-2 IM
- apoptosis ratio (SH-SY5Y cells): decreased in a dose-dependent manner
